In patent US9199962B2, “Substituted azaheterocycles for the treatment of cancer” (Merck Patent GmbH, priority 2011, dated 2015):

target: T1, GST-FAK (N-terminal GST fusion with truncated human FAK (376-1052 (end) amino acids)) (Homo sapiens, UniProt Q05397); experiment: Biochemical enzyme assay for FAK activity (Caliper LC3000 mobility shift); settings: Table 1; 100 uM ATP; read-out: FAK IC50
T1 construct: truncated human FAK (376-1052 (end) amino acids)
Method: 1. Biochemical Enzyme Assays for FAK Activity
The FAK assays described here are performed on two Caliper Life Sciences systems, the LC3000 and the EZ Reader II. These provide data on enzyme activity via measurement of the relative amounts of phosphorylated or unphosphorylated fluorescently labelled substrate peptide at the end of an enzymatic reaction. These different states of peptide are resolved by applying a potential difference across the sample. The presence of the charged phosphate group on the product (as opposed to the substrate) causes different peptide mobility between the two peptides. This is visualized by excitation of the fluorescent label on the substrate and product peptides and represented as peaks within the analysis software.
In order to measure inhibitor activity of FAK, inhibitors in the Caliper Life Sciences LC3000, a TTP Mosquito liquid handling instrument is used to place 0.25 ul of the appropriate concentration of inhibitor in 100% DMSO (for a dose response curve calculation) into each well of a 384-well plate. To this reaction components are added to a final volume of 25 ul: • 0.067 ng/ul GST-FAK (N-terminal GST fusion with truncated human FAK (376-1052 (end) amino acids)) • 100 uM ATP • 1 mM DTT • 1 mM MgCl2 • 1 uM substrate peptide (sequence FITC-KGWMEDYDYVHLQGKK-(CONH2)SEQ ID NO: 1)) • 1 mM FERM peptide (sequence NH2-GATQSFIIR-COOH (SEQ ID NO: 2)) • 100 mM HEPES pH 7.5 • 0.015% Brij-35
The reaction is incubated for 90 min at 25 C, and then stopped by the addition of 70 ul of Stop buffer (100 mM HEPES pH 7.5, 0.015% Brij-35, 10 mM EDTA).
The plate is read on a Caliper LC 3000 in an Off-Chip mobility shift assay format, using the following parameters for a 12-sipper chip: screening pressure—1.9 psi, upstream voltage—3000, downstream voltage—700. These conditions cause unphosphorylated substrate and phosphorylated product peptide to resolve as separate peaks allowing direct measurement of percentage of conversion of substrate to product. The percent conversion can be plotted against concentration of inhibitor to produce a sigmoid dose response curve, from which an IC50 can be calculated using XLFit for Microsoft Excel.

T1 sequence (Q05397 376-1052): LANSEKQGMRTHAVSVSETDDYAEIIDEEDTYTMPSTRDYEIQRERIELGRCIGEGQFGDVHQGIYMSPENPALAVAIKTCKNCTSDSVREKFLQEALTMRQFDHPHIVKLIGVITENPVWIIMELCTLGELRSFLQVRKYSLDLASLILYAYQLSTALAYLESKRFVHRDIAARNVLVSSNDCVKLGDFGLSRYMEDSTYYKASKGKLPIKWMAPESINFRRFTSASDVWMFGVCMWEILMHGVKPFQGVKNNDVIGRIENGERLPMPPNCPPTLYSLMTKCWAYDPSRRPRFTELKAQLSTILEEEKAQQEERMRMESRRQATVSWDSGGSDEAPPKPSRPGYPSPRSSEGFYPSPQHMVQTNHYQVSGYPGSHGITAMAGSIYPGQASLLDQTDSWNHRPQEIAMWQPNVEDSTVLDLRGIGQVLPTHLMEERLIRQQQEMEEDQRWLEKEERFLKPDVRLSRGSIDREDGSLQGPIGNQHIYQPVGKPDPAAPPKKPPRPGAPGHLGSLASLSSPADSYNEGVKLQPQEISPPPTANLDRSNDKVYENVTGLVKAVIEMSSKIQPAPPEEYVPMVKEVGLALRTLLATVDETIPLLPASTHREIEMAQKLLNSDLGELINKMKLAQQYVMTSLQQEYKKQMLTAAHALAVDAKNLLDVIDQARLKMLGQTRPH

Question: Which IC50 does the source give for `Clc1cncc(-c2nccc(NCC3CC3)n2)c1` [Compound 36, [2-(5-Chloro-pyridin-3-yl)-pyrimidin-4-yl]-cyclopropylmethyl-amine] here?
Answer: 1000 to 10000 nM

Question: How did the IC50 turn out when `Clc1cncc(-c2nccc(NCC3CCCCC3)n2)c1` [Compound 37, [2-(5-Chloro-pyridin-3-yl)-pyrimidin-4-yl]-cyclohexylmethyl-amine] was run?
Answer: 1000 to 10000 nM

Question: How did the IC50 turn out when `Fc1ccccc1CNc1ccnc(-c2cncc(Cl)c2)n1` [Compound 38, [2-(5-Chloro-pyridin-3-yl)-pyrimidin-4-yl]-(2-fluoro-benzyl)-amine] was run?
Answer: < 100 nM

Question: With `Fc1ccc(CNc2ccnc(-c3cncc(Cl)c3)n2)cc1` [Compound 39, [2-(5-Chloro-pyridin-3-yl)-pyrimidin-4-yl]-(4-fluoro-benzyl)-amine] as the compound, how does the IC50 read?
Answer: 100 to 1000 nM

Question: `CC1(C)Cc2cccc(CNc3ccnc(-c4cncc(C(=O)N5CCOCC5)c4)n3)c2O1` [Compound 40, (5-{4-[(2,2-Dimethyl-2,3-dihydro-benzofuran-7-ylmethyl)-amino]-pyrimidin-2-yl}-pyridin-3-yl)-morpholin-4-yl-methanone] was tested. Which IC50 did it give?
Answer: > 10000 nM

same assay, conditions: Table 2; 100 uM ATP; read-out: FAK IC50

Question: Which IC50 does the source give for `NC(=O)CCNc1cc(NCc2ccc(F)cc2F)nc(-c2cncc(C(F)(F)F)c2)n1` [Compound 61, 3-[6-(2,4-Difluoro-benzylamino)-2-(5-trifluoromethyl-pyridin-3-yl)-pyrimidin-4-ylamino]-propionamide] here?
Answer: 100 to 1000 nM

Question: Which IC50 does the source give for `Fc1ccc(CNc2cc(NC3CCNCC3)nc(-c3cncc(C(F)(F)F)c3)n2)c(F)c1` [Compound 66, N-(2,4-Difluoro-benzyl)-N′-piperidin-4-yl-2-(5-trifluoromethyl-pyridin-3-yl)-pyrimidine-4,6-diamine] here?
Answer: 100 to 1000 nM

Question: For `OCC(Nc1ccnc(-c2cncc(C(F)(F)F)c2)n1)c1ccccc1` (stereo not drawn) [Compound 67, 2-Phenyl-2-[2-(5-trifluoromethyl-pyridin-3-yl)-pyrimidin-4-ylamino]-ethanol], which IC50 is on record?
Answer: 100 to 1000 nM

Question: `CC(Nc1ccnc(-c2cncc(C(F)(F)F)c2)n1)c1ccc(F)cc1` (stereo not drawn) [Compound 68, [1-(4-Fluoro-phenyl)-ethyl]-[2-(5-trifluoromethyl-pyridin-3-yl)-pyrimidin-4-yl]-amine] was tested. Which IC50 did it give?
Answer: 100 to 1000 nM

Question: With `CC(=O)NCCNC(=O)c1cc(NCc2ccc(F)cc2F)nc(-c2cncc(C(F)(F)F)c2)n1` [Compound 69, 6-(2,4-Difluoro-benzylamino)-2-(5-trifluoromethyl-pyridin-3-yl)-pyrimidine-4-carboxylic acid (2-acetylamino-ethyl)-amide] as the compound, how does the IC50 read?
Answer: < 100 nM

Question: Which IC50 does the source give for `O=C(NCCc1cccnc1)c1cc(NCc2ccc(F)cc2F)nc(-c2cncc(C(F)(F)F)c2)n1` [Compound 70, 6-(2,4-Difluoro-benzylamino)-2-(5-trifluoromethyl-pyridin-3-yl)-pyrimidine-4-carboxylic acid (2-pyridin-3-yl-ethyl)-amide] here?
Answer: < 100 nM

Question: How did the IC50 turn out when `O=C(NCCn1cccn1)c1cc(NCc2ccc(F)cc2F)nc(-c2cncc(C(F)(F)F)c2)n1` [Compound 71, 6-(2,4-Difluoro-benzylamino)-2-(5-trifluoromethyl-pyridin-3-yl)-pyrimidine-4-carboxylic acid (2-pyrazol-1-yl-ethyl)-amide] was run?
Answer: < 100 nM

Question: With `Cc1nc(CCNC(=O)c2cc(NCc3ccc(F)cc3F)nc(-c3cncc(C(F)(F)F)c3)n2)cs1` [Compound 73, 6-(2,4-Difluoro-benzylamino)-2-(5-trifluoromethyl-pyridin-3-yl)-pyrimidine-4-carboxylic acid [2-(2-methyl-thiazol-4-yl)-ethyl]-amide] as the compound, how does the IC50 read?
Answer: 100 to 1000 nM

Question: How did the IC50 turn out when `CCc1noc(CCNC(=O)c2cc(NCc3ccc(F)cc3F)nc(-c3cncc(C(F)(F)F)c3)n2)n1` [Compound 74, 6-(2,4-Difluoro-benzylamino)-2-(5-trifluoromethyl-pyridin-3-yl)-pyrimidine-4-carboxylic acid [2-(3-ethyl-[1,2,4]oxadiazol-5-yl)-ethyl]-amide] was run?
Answer: 100 to 1000 nM

Question: How did the IC50 turn out when `O=C(NCCN1CCNC1=O)c1cc(NCc2ccc(F)cc2F)nc(-c2cncc(C(F)(F)F)c2)n1` [Compound 75, 6-(2,4-Difluoro-benzylamino)-2-(5-trifluoromethyl-pyridin-3-yl)-pyrimidine-4-carboxylic acid [2-(2-oxo-imidazolidin-1-yl)-ethyl]-amide] was run?
Answer: 100 to 1000 nM

Question: How did the IC50 turn out when `CNC(=O)[C@H](NC(=O)c1cc(NCc2ccc(F)cc2F)nc(-c2cncc(C(F)(F)F)c2)n1)C(C)C` [Compound 76, 6-(2,4-Difluoro-benzylamino)-2-(5-trifluoromethyl-pyridin-3-yl)-pyrimidine-4-carboxylic acid ((R)-2-methyl-1-methylcarbamoyl-propyl)-amide] was run?
Answer: 100 to 1000 nM

same assay, conditions: Table 3; 100 uM ATP; read-out: FAK IC50

Question: How did the IC50 turn out when `Nc1ncccc1-c1nccc(NCc2ccccc2F)n1` [Compound 78, 2-(2-Aminopyridin-3-yl)-N-(2-fluorobenzyl)pyrimidin-4-amine] was run?
Answer: 100 to 1000 nM

Question: With `Nc1ncccc1-c1nccc(NCc2cccc(F)c2)n1` [Compound 79, 2-(2-Aminopyridin-3-yl)-N-(3-fluorobenzyl)pyrimidin-4-amine] as the compound, how does the IC50 read?
Answer: > 10000 nM

Question: How did the IC50 turn out when `Nc1ncccc1-c1nccc(NCc2ccc(F)cc2)n1` [Compound 80, 2-(2-Aminopyridin-3-yl)-N-(4-fluorobenzyl)pyrimidin-4-amine] was run?
Answer: 1000 to 10000 nM

Question: For `Nc1ncccc1-c1nccc(NCc2ccccc2)n1` [Compound 81, 2-(2-Aminopyridin-3-yl)-N-benzylpyrimidin-4-amine], which IC50 is on record?
Answer: 1000 to 10000 nM

Question: For `Cc1ccccc1CNc1ccnc(-c2cccnc2N)n1` [Compound 82, 2-(2-Aminopyridin-3-yl)-N-(2-methylbenzyl)pyrimidin-4-amine], which IC50 is on record?
Answer: 1000 to 10000 nM

Question: Which IC50 does the source give for `COc1ccccc1CNc1ccnc(-c2cccnc2N)n1` [Compound 83, 2-(2-Aminopyridin-3-yl)-N-(2-methoxybenzyl)pyrimidin-4-amine] here?
Answer: 1000 to 10000 nM

Question: How did the IC50 turn out when `Nc1ncccc1-c1nccc(NCc2ccccc2OC(F)(F)F)n1` [Compound 84, 2-(2-Aminopyridin-3-yl)-N-[2-(trifluoromethoxy)benzyl]pyrimidin-4-amine] was run?
Answer: 1000 to 10000 nM

Question: Which IC50 does the source give for `Nc1ncccc1-c1nccc(NCc2cccc(F)c2F)n1` [Compound 85, 2-(2-Aminopyridin-3-yl)-N-(2,3-difluorobenzyl)pyrimidin-4-amine] here?
Answer: 1000 to 10000 nM

Question: How did the IC50 turn out when `Nc1ncccc1-c1nccc(NCc2ccccc2Cl)n1` [Compound 86, 2-(2-Aminopyridin-3-yl)-N-(2-chlorobenzyl)pyrimidin-4-amine] was run?
Answer: 100 to 1000 nM

Question: `CS(=O)(=O)c1ccccc1CNc1ccnc(-c2cccnc2N)n1` [Compound 87, 2-(2-Aminopyridin-3-yl)-N-[2-(methylsulfonyl)benzyl]pyrimidin-4-amine] was tested. Which IC50 did it give?
Answer: 1000 to 10000 nM

Question: How did the IC50 turn out when `CN(c1ncccc1CNc1ccnc(-c2cccnc2N)n1)S(C)(=O)=O` [Compound 88, N-[3-({[2-(2-Aminopyridin-3-yl)pyrimidin-4-yl]amino}methyl)pyridin-2-yl]-N-methylmethane-sulfonamide] was run?
Answer: > 10000 nM

Question: How did the IC50 turn out when `CS(=O)(=O)c1cccc(CNc2ccnc(-c3cccnc3N)n2)c1` [Compound 90, 2-(2-Aminopyridin-3-yl)-N-[3-(methylsulfonyl)benzyl]pyrimidin-4-amine] was run?
Answer: 1000 to 10000 nM

Question: How did the IC50 turn out when `CN(C)c1ccccc1CNc1ccnc(-c2cccnc2N)n1` [Compound 91, 2-(2-Aminopyridin-3-yl)-N-[2-(dimethylamino)benzyl]pyrimidin-4-amine] was run?
Answer: 1000 to 10000 nM

Question: For `Cc1ccc(CNc2ccnc(-c3cccnc3N)n2)cc1` [Compound 92, 2-(2-Aminopyridin-3-yl)-N-(4-methylbenzyl)pyrimidin-4-amine], which IC50 is on record?
Answer: > 10000 nM

Question: With `Fc1ccccc1CNc1ccnc(-c2cccnc2)n1` [Compound 93, N-(2-Fluorobenzyl)-2-pyridin-3-ylpyrimidin-4-amine] as the compound, how does the IC50 read?
Answer: 100 to 1000 nM

Question: How did the IC50 turn out when `Nc1ccc(-c2nccc(NCc3ccccc3C(F)(F)F)n2)cn1` [Compound 94, 2-(6-Aminopyridin-3-yl)-N-[2-(trifluoromethyl)benzyl]pyrimidin-4-amine] was run?
Answer: 1000 to 10000 nM

Question: For `Cc1cccc(CNc2ccnc(-c3cccnc3N)n2)c1` [Compound 95, 2-(2-Aminopyridin-3-yl)-N-(3-methylbenzyl)pyrimidin-4-amine], which IC50 is on record?
Answer: > 10000 nM

Question: With `Nc1ncccc1-c1nccc(NCc2ccc(C(F)(F)F)cc2)n1` [Compound 96, 2-(2-Aminopyridin-3-yl)-N-[4-(trifluoromethyl)benzyl]pyrimidin-4-amine] as the compound, how does the IC50 read?
Answer: > 10000 nM

Question: With `COc1ccc(CNc2ccnc(-c3cccnc3N)n2)cc1` [Compound 97, 2-(2-Aminopyridin-3-yl)-N-(4-methoxybenzyl)pyrimidin-4-amine] as the compound, how does the IC50 read?
Answer: > 10000 nM

Question: With `CS(=O)(=O)c1ccc(CNc2ccnc(-c3cccnc3N)n2)cc1` [Compound 99, 2-(2-Aminopyridin-3-yl)-N-[4-(methylsulfonyl)benzyl]pyrimidin-4-amine] as the compound, how does the IC50 read?
Answer: > 10000 nM
